Measurements: patent EP4647433A1, “SHP2 INHIBITOR AND USES THEREOF” (Kanaph Therapeutics Inc., priority 2023, dated 2024)
pIC50: −log10 of the molar value.

What was measured:
[1] = system: H358 cells; assay: Cell viability (3D spheroid, 3D CellTiter-Glo); format: cell-based; settings: Homo sapiens, NCI-H358, 120 h; H358 spheroids, 5 days treatment
Method: Human non-small cell lung cancer cell line H358 cells were purchased from the Korean Cell Line Bank. Cancer cell lines were cultured in the recommended RPMI-1640 medium supplemented with 10% fetal bovine serum (FBS) and 1% penicillin/streptomycin. Monolayer-cultured cancer cell lines were detached by treatment with Trypsin/EDTA, and 100 µL of cell suspension containing 4 x 10^3 cells was each dispensed into SPL3D™ Cell Floater, 96-well round plate, through cell line counting. After culturing for 72 hours to form spheroid, the cells were individually treated with the compounds according to the Examples, which had been serially diluted (minimum 1.5 nM, maximum 10 µM in concentration), and then cultured in a cell incubator for 5 days. To analyze cell viability, the cells were treated with 50 uL of 3D CellTiter-Glo, stirred for 5 minutes at 500 rpm in a plate shaker from Thermo Fisher Scientific, and incubated for 25 minutes at room temperature. Then, the luminescent values were measured using a Varioskan equipment from Thermo Fisher Scientific. IC50 values were obtained using GraphPad's Prism from the measured values depending on the concentration.
In the cell viability assay, when an IC50 value was 50 nM or more, + was indicated, when an IC50 value was 10 nM or more and less than 50 nM, ++ was indicated, and when an IC50 value was less than 10 nM, +++ was indicated.

[2] = molecular target: T1, SHP2 (Homo sapiens, UniProt Q06124); assay: Phosphatase assay (PTPase assay, DiFMUP substrate); format: biochemical; settings: full length SHP2 100 pM activated with SHP2 activating peptide, DiFMUP 80 µM, 2 hours; read-out: PTPase assay (IC50)
T1 construct: SHP2 (full length, diluted to 100 pM final concentration in reaction buffer, BPS bioscience, US); purchased BPS bioscience, US
T1 sequence (Q06124 1-593): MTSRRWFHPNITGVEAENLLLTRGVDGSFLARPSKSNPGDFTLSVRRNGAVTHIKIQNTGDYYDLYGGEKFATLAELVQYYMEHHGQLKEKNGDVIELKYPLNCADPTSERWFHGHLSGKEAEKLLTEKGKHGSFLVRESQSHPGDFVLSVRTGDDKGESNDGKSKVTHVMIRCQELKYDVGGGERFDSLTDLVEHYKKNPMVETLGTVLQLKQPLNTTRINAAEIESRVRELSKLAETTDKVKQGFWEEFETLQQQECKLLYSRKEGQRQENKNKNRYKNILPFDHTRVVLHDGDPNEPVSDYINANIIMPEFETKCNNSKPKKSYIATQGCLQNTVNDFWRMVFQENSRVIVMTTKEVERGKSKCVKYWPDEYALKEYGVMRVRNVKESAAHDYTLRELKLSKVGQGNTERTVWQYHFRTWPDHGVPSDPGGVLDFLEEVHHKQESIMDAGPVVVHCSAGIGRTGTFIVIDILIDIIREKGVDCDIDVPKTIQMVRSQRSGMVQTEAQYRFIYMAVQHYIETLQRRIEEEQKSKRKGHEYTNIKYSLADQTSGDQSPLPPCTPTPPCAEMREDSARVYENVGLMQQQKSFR
Method: IC50 values were measured using 6,8-difluoro-4-methylumbelliferyl phosphate (DiFMUP) as a substrate. The reaction was performed in a 384-well plate, and fluorescence measurement values were obtained using an EnVision plate reader from PerkinElmer.
SHP2 (full length, diluted to 100 pM final concentration in reaction buffer, BPS bioscience, US) was incubated with the SHP2 activating peptide in reaction buffer (60 mM HEPES (pH 7.2), 75 mM NaCl, 75 mM KCl, 1 mM EDTA, 5 mM DTT, 0.05% P-20) for 30 minutes to activate SHP2. After activation, DMSO [1% (V/V) or the compound according to the Examples (concentration ranging from 0.6 nM to 10 µM)] was added. As a positive control group, the selective SHP2 inhibitors SHP099 (6-(4-amino-4-methylpiperidin-1-yl)-3-(2,3-dichlorophenyl)pyrazin-2-amine, FOCUS bioscience, Austrailia; concentration ranging from 0.6 nM to 10 µM) and TNO155 ((3S,4S)-8-(6-amino-5-((2-amino-3-chloropyridin-4-yl)thio)pyrazin-2-yl)-3-methyl-2-oxa-8-azaspiro[4.5]decan-4-amine, Chemietek, US; concentration ranging from 0.6 nM to 10 µM) were used. [drawing 184]
DiFMUP (80 µM) was added to the reaction and incubated for a total of 2 hours to allow for the reaction to proceed. Thereafter, fluorescence (340 nm excitation, 450 nm emission) values were measured. IC50 values were obtained using Graphad's Prism from the measured values depending on the concentration.
In the phosphatase assay (PTPase assay), when an IC50 value was 100 nM or more, + was indicated, when an IC50 value was 3 nM or more and less than 100 nM, ++ was indicated, and when an IC50 value was less than 3 nM, +++ was indicated.

[3] = Brain-plasma Pharmacokinetics; settings: mouse, 20 mg/kg
Method: Nine male CD-1 mice (ICR mouse) aged 6 to 9 weeks were treated with the compounds according to the Examples at a concentration of 20 mg/kg. 0.025 mL of blood and brain tissue were collected at 1 hour, 8 hours, and 24 hours post-treatment, respectively. The collected blood was placed in an EDTA-K2 tube, centrifuged at 4°C at 3,200 x g for 10 minutes, and the supernatant plasma was collected. The brain tissue samples were collected immediately after euthanizing the CD-1 mice after blood collection and performing cardiac perfusion with cold saline. After collection, the brain tissues were washed with cold saline, wiped and dried, weighed, and homogenized using a homogenization buffer (15 mM PBS (pH 7.4): MeOH = 2:1) at a ratio of 1:3 (1 g of tissue to 3 mL of buffer, dilution ratio 4). Plasma and homogenized brain tissue samples were each transferred to a polypropylene microcentrifuge tube and stored at -60°C or lower. The concentration of compounds distributed in plasma and brain tissue was analyzed using LC-MS/MS, and the distribution in brain tissue compared to plasma was calculated as follows. Brain-to-plasma ratio = AUC(0-t) brain tissue /AUC(0-t) plasma [formula]
In the Brain-plasma Pharmacokinetics assay, when a brain-to-plasma ratio value was 0.05 or more and less than 0.1, + was indicated, when a brain-to-plasma ratio value was 0.1 or more and less than 0.25, ++ was indicated, and when a brain-to-plasma ratio value was more than 0.25, +++ was indicated.

[4] = system: phospho-ERK; assay: phospho-ERK assay (AlphaLisa) in H358 cells; format: cell-based; settings: Homo sapiens, NCI-H358, 1.5 hours incubation, read-out: pERK assay (IC50)
Method: H358 [20,000 cell/well] was contained in 40 µL of the cell culture solution (RPMI, 10% FBS, penicillin, streptomycin) and placed on a 384-well plate. After 24 hours, the serially diluted compound according to the Examples (concentration of minimum 0.13 nM, maximum 10 µM) was contained in 10 µL of the cell culture solution, put into wells containing cells, and incubated in a cell incubator for 1.5 hours. As a positive control group, the selective SHP2 inhibitor, TNO155 (Chemietek, US; concentration ranging from 0.13 nM to 10 µM) was used.
Thereafter, phospho-ERK was labeled using an AlphaLisa system from PerkinElmer according to the manufacturer's instructions, and then fluorescence (680 nm excitation wavelength, 615 nm emission wavelength) values were measured using a Varioskan equipment from Thermo. IC50 values were obtained using Graphad's Prism from the measured values depending on the concentration.
Intracellular SHP2 activity can be confirmed by measuring the degree of phosphorylation of ERK (extracellular signal regulated kinase), which represents Ras/Raf/ERK, a downstream signal pathway of SHP2. Inhibition of ERK phosphorylation by SHP2 inhibitors was confirmed through phospho-ERK analysis, which confirmed that the SHP2 inhibitors of the present disclosure have excellent activity in inhibiting ERK phosphorylation mediated by SHP2.

Compound | pIC50 [1] | pIC50 [2] | Kp at 24 h ([3]; male, CD-1 (ICR), brain/plasma) | pIC50 [4] | Kp at 24 h ([3]; brain)
CC(C)(O)Cn1cnc2ccc(Sc3cnc(N4CCC5(CC4)Cc4ccccc4[C@H]5N)cn3)c(Cl)c2c1=O [Example 25, (S)-6-((5-(1-amino-1,3-dihydrospiro[indene-2,4'-piperidin]-1'-yl)pyrazin-2-yl)thio)-5-chloro-3-(2-hydroxy-2-methylpropyl)quinazolin-4(3H)-one] | > 8.00 | > 8.52 | 0.05 to 0.1 | > 7.35 | 
Cn1ccc2ccc(Sc3cnc(N4CCC5(CC4)Cc4ccccc4[C@H]5N)cn3)cc2c1=O [Example 45, (S)-7-((5-(1-amino-1,3-dihydrospiro[indene-2,4'-piperidin]-1'-yl)pyrazin-2-yl)thio)-2-methylisoquinolin-1(2H)-one] | > 8.00 | > 8.52 | 0.1 to 0.25 | 5.82 to 7.35 | 
COC(C)(C)Cn1cnc2ccc(Sc3cnc(N4CCC5(CC4)Cc4ncsc4[C@H]5N)cn3)c(Cl)c2c1=O [Example 32, (S)-6-((5-(6-amino-4,6-dihydrospiro[cyclopenta[d]thiazole-5,4'-piperidin]-1'-yl)pyrazin-2-yl)thio)-5-chloro-3-(2-methoxy-2-methylpropyl)quinazolin-4(3H)-one] | > 8.00 |  | 0.1 to 0.25 | > 7.35 | 
COC(C)(C)Cn1ccc2ccc(Sc3cnc(N4CCC5(CC4)Cc4ccccc4[C@H]5N)cn3)c(Cl)c2c1=O [Example 43, (S)-7-((5-(1-amino-1,3-dihydrospiro[indene-2,4'-piperidin]-1'-yl)pyrazin-2-yl)thio)-8-chloro-2-(2-methoxy-2-methylpropyl)isoquinolin-1(2H)-one] | > 8.00 | > 8.52 | > 0.25 | 5.82 to 7.35 | 
COC(C)(C)Cn1cnc2ccc(Sc3nc(CO)c(N4CCC5(CC4)Cc4ccccc4[C@H]5N)nc3C)c(Cl)c2c1=O [Example 35, (S)-6-((5-(1-amino-1,3-dihydrospiro[indene-2,4'-piperidin]-1'-yl)-6-(hydroxymethyl)-3-methylpyrazin-2-yl)thio)-5-chloro-3-(2-methoxy-2-methylpropyl)quinazolin-4(3H)-one] | > 8.00 | > 8.52 | 0.1 to 0.25 | 5.82 to 7.35 | 
Cn1ccc2ccc(Sc3ncc(N4CCC5(CC4)Cc4ccccc4[C@H]5N)nc3N)c(Cl)c2c1=O [Example 47, (S)-7-((3-amino-5-(1-amino-1,3-dihydrospiro[indene-2,4'-piperidin]-1'-yl)pyrazin-2-yl)thio)-8-chloro-2-methylisoquinolin-1(2H)-one] | > 8.00 | > 8.52 | 0.1 to 0.25 | > 7.35 | 
COC(C)Cn1ccc2ccc(Sc3ncc(N4CCC5(CC4)Cc4ccccc4[C@H]5N)nc3N)c(Cl)c2c1=O (stereo partly drawn) [Example 49] | > 8.00 | > 8.52 | 0.1 to 0.25 | > 7.35 | 
COC(C)(C)Cn1cnc2ccc(Sc3cnc(N4CCC5(CC4)Cc4ccccc4[C@H]5N)cn3)cc2c1=O [Example 29, (S)-6-((5-(1-amino-1,3-dihydrospiro[indene-2,4'-piperidin]-1'-yl)pyrazin-2-yl)thio)-3-(2-methoxy-2-methylpropyl)quinazolin-4(3H)-one] | > 8.00 | 7.00 to 8.52 | > 0.25 | 5.82 to 7.35 | 
Cn1cnc2ccc(Sc3cnc(N4CCC5(CC4)Cc4ccccc4[C@H]5N)cn3)c(Cl)c2c1=O [Example 7, (S)-6-((5-(1-amino-1,3-dihydrospiro[indene-2,4'-piperidin]-1'-yl)pyrazin-2-yl)thio)-5-chloro-3-methylquinazolin-4(3H)-one] | > 8.00 | > 8.52 |  | > 7.35 | 0.1 to 0.25
COC(C)(C)Cn1ccc2ccc(Sc3cnc(N4CCC5(CC4)Cc4ccccc4[C@H]5N)cn3)cc2c1=O [Example 44, (S)-7-((5-(1-amino-1,3-dihydrospiro[indene-2,4'-piperidin]-1'-yl)pyrazin-2-yl)thio)-2-(2-methoxy-2-methylpropyl)isoquinolin-1(2H)-one] | > 8.00 | 7.00 to 8.52 | > 0.25 | 5.82 to 7.35 | 
COC(C)(C)Cn1cnc2ccc(Sc3cnc(N4CCC5(CC4)CO[C@@H](C)[C@H]5N)cn3)c(Cl)c2c1=O [Example 18, 6-((5-((3S,4S)-4-amino-3-methyl-2-oxa-8-azaspiro[4.5]decan-8-yl)pyrazin-2-yl)thio)-5-chloro-3-(2-methoxy-2-methylpropyl)quinazolin-4(3H)-one] | > 8.00 | > 8.52 | > 0.25 | > 7.35 | 
Cn1ccc2ccc(Sc3cnc(N4CCC5(CC4)Cc4ccccc4[C@H]5N)cn3)c(Cl)c2c1=O [Example 41, (S)-7-((5-(1-amino-1,3-dihydrospiro[indene-2,4'-piperidin]-1'-yl)pyrazin-2-yl)thio)-8-chloro-2-methylisoquinolin-1(2H)-one] | 7.30 to 8.00 | > 8.52 | > 0.25 | 5.82 to 7.35 | 
COC(C)(C)Cn1cnc2ccc(Sc3cnc(N4CCC5(CC4)Cc4ccccc4[C@H]5N)cn3)c(Cl)c2c1=O [Example 27, (S)-6-((5-(1-amino-1,3-dihydrospiro[indene-2,4'-piperidin]-1'-yl)pyrazin-2-yl)thio)-5-chloro-3-(2-methoxy-2-methylpropyl)quinazolin-4(3H)-one] | > 8.00 | > 8.52 | > 0.25 | > 7.35 | 
N[C@@H]1c2ccccc2CC12CCN(c1cnc(Sc3ccc4ncn(-c5cccnc5)c(=O)c4c3Cl)cn1)CC2 [Example 31, (S)-6-((5-(1-amino-1,3-dihydrospiro[indene-2,4'-piperidin]-1'-yl)pyrazin-2-yl)thio)-5-chloro-3-(pyridin-3-yl)quinazolin-4(3H)-one] | > 8.00 |  | 0.1 to 0.25 | 5.82 to 7.35 | 
